Consider one compound from paper PMC4695662 (BioMed Research International, 2015).

One series concerns Oat3 mRNA. Kind of series: Oat3 mRNA expression in kidney by real-time PCR. Particulars: renal cortex of mice. The format is in vivo. The procedure:
(§1) Total RNA was extracted using Trizol reagent from renal cortical tissues according to the manufacturer's instructions and RNA concentration and purity were evaluated by measuring the ratio of A260 nm/A280 nm. First-strand cDNA was generated by adding 1 μg total RNA; 2 μL 5x gDNA Eraser Buffer; 1 μL gDNA Eraser; 5 μL RNase Free dH2O (step 1: 42°C, 2 min for genomic DNA elimination reaction); […]; 1 μL Prime Script RT Enzyme Mix I; 1 μL RT Primer Mix; 4 μL RNase Free dH2O; and 10 μL reaction solution from step 1, which were used to reach a total reaction volume of 20 μL. The condition of reverse-transcription (RT) reaction was as follows, 15 min at 37°C and 85°C for 5 s, and stored at 4°C. […]
(§2) The real-time quantitative PCR was conducted in ABI 7500 (Applied Biosystems, USA) and the cycling program was set at 1 cycle of predenaturation at 95°C for 30 s and then 40 cycles at 95°C for 15 s, 56°C for 30 s, and 72°C for 31 s. […] Quantification of the target cDNAs in all samples was normalized to GAPDH […] (Cttarget − CtGAPDH = ΔCt) and the difference in expression for each target cDNA in the investigated groups was expressed to the amount in the water control group (ΔCttreated − ΔCtcontrol = ΔΔCt). Fold changes in target gene expression were determined by taking 2 to the power of this number (2^−ΔΔCt).
In general terms: Quantitative PCR measures a nucleic acid by following its amplification.

Series [1] has as its system Oat1 and Oat3. Kind of series: Accumulation of PAH in kidney tissue. It is filed as in vivo, mice. To be noted: all sampling times after i.v. PAH, compared with C-1 (p < 0.01); in words. As to the method:
The mice renal homogenate was prepared by Shihana et al. protocol. Each right kidney was cut into small pieces, which were put into a glass homogenizing tube containing PBS (200 mM sucrose, 137 mM NaCl, 2.7 mM KCl, 10 mM Na2HPO4, and 2 mM NaH2PO4; pH 7.4) at a ratio of 8 mL/g wet weight and then were homogenized with a motor-driven Teflon pestle (1000 rpm/min) and spun down for 30 min at 20,000 ×g. The supernatant was isolated and then stored at −20°C until determination. The kidney homogenates were prepared from each group which was removed at 1, 5, 10, 20, and 30 min after i.v. PAH. Protein content of kidney homogenates was quantified using the Lowry Folin phenol reagent (Nanjing Jiancheng Bioengineering Institute, Ltd., China, Lot. 130918). The concentrations of PAH in kidney homogenate were determined the same as that in the sera.

For series [2], the system named is Oat1 and Oat3. Briefly: PAH uptake by mice renal slices after treatment. The format is in vivo. To be noted: 2 mM PAH, 20 min, 37°C, slices from mice treated twice a day for five days; in words. As to the method:
The uptake of PAH by mice renal slices was investigated using the procedures described by Henderson and Lindup. Briefly, mice were executed, and the kidneys were immediately harvested, decapsulated, and placed in an ice-cold oxygenated rinse PBS (pH 7.4). Renal slices (weight 10–20 mg/slice) were cut freehand with Gillette valet strip blades to about 0.2 inches in length (Sabre International Products Ltd., Reading, UK). Slices of one kidney were preincubated for 5 min at 37°C and incubated in a 12-well plate with 1 mL of oxygenated PAH-buffer which consisted of 2 mM PAH, 97 mM NaCl, 40 mM KCl, 0.74 mM CaCl2, and 7.5 mM sodium phosphate-chloride buffer in each well. The uptake study was carried out at 37°C in the shaking bath. After incubating for 20 min, each slice was rapidly removed from the PAH-buffer, immediately inactivated the proteins with trichloroacetic acid, was washed in ice-cold saline, was blotted on filter paper, was weighed, and then was homogenized at a ratio of 3 mL/g wet weight. The following operations were the same as described in Section 2.6.

The test system of series [3] is Oat1 and Oat3. Briefly: PAH pharmacokinetic studies in mice sera after oral treatment with investigational samples. Particulars: in words, versus control.
Protocol: All mice were given standard mice chows and pure water ad libitum and housed at 20~26°C.
On the experiment day, 60 min after the last administration of investigational samples, all mice were single i.v. PAH (30 mg/kg B.W., aqueous solution), respectively, according to the protocol of Bertani et al. [16] and blood samples were collected from 10 mice/group by euthanization in each time point at 1.0, 2.5, 5.0, 7.5, 10.0, 20.0, and 30.0 min after PAH injection. Blood samples were centrifuged at 2000 ×g for 5 min. The obtained sera were stored at −20°C until measurement.
The concentration of PAH in sera was determined according to Saikan and Kiguchi [19] method. The sera concentration versus time curve for PAH, for each individual animal, was fitted with PK software DAS 2.0. The data were fitted to a biexponential curve. The choice of the best fit was based on the determination of coefficient values (R ^2) and LSD test [20]. All fits should have R ^2 values > 0.98. […] Concentration of PAH in serum was measured using the method described by Di Giusto et al. [21].
The next series has as its system Oat1 mRNA. Kind of series: Oat1 mRNA expression in kidney by real-time PCR. The format is in vivo. To be noted: renal cortex of mice. The procedure:
as §1, §2

As to `[Cl][Hg][Cl]` [HgCl2], the “Decrease in Oat3 mRNA level” value with Oat3 mRNA turned out to be 40%. In the series on Oat1 and Oat3 [1], the “PAH accumulations in the kidneys” value is listed as “observably increased”. The “Active uptake of PAH by renal slices” value in the series with Oat1 and Oat3 [2] is recorded as “interfered with the PAH uptake”. Besides, in the series with Oat1 and Oat3 [3], the “Change of area under the curve (AUC0–30 min) of serum PAH” value is on record as “significant increase” and the “Change of total volume of distribution (VdT) of serum PAH” value is reported as “obvious decrease”. The “Reduction of Oat1 mRNA expression” value in the series on Oat1 mRNA came to 40%.
